Experimental data reported in paper PMC9375819 (EJNMMI Research, 2022).

How the values were obtained:
[1] = molecular target: T1, ATM (Homo sapiens, UniProt Q13315); experiment: Western blot of pATM, pKAP1 and pCHK2 in irradiated H1299 shGFP cells; assay type: cell-based; conditions: irradiated (4 Gy) H1299 shGFP knockdown cells, inhibitor 1 h before irradiation, relative to DMSO control
T1 construct: endogenous in cells; host or cells: H1299 shGFP and shATM cells
Experimental: (§1) H1299 non-small cell lung cancer cells, either wild type or stably transfected with short hairpin RNA for ATM (shATM) or GFP (shGFP, as a control) expression knockdown, were kindly gifted by Dr Anderson Ryan at the University of Oxford. All cells were cultured at 37 °C and 5% CO2 in Dulbecco’s modified Eagle medium (DMEM) supplemented with 10% foetal bovine serum (FBS) (Gibco, USA), 2 mM L-glutamine, 100 units/mL penicillin, and 100 µg/mL streptomycin (PSG) (Sigma-Aldrich); knockdown cell lines were additionally supplemented with 0.5 μg/mL puromycin dihydrochloride (Merck Life Science, UK). Cells were originally purchased from ATCC and were authenticated by the provider and by STR profiling. Cells were tested regularly for the absence of mycoplasma contamination and were cultured for a maximum of 20 passages after resuscitation from liquid nitrogen storage.

[2] = tested on: mTOR; design: method as in earlier work; conditions: read-out: Cellular IC50 by catalytic inhibition: mTOR; cited from earlier work
[3] = tested on: ATR; design: method as in earlier work; conditions: read-out: Cellular IC50 by catalytic inhibition: ATR; cited from earlier work
[4] = tested on: ATM; design: method as in earlier work; conditions: cited from earlier work
[5] = tested on: PI3K; design: method as in earlier work; conditions: read-out: Cellular IC50 by catalytic inhibition: PI3K; cited from earlier work
[6] = molecular target: T2, murine ATM (Mus musculus, UniProt Q62388); experiment: Western blot of ATM inhibition in CT26 murine colorectal cancer cells; assay type: cell-based
T2 construct: endogenous in cells; host or cells: CT26 murine colorectal cancer cells
Experimental: Western blot analysis was performed to compare the total ATM expression between cell models, in addition to expression of phospho-ATM^S1981 (pATM), phospho-KAP1^S824 (pKAP1), and phospho-CHK2^T68 (pCHK2) expression to assess the effect of irradiation and ATM inhibition on ATM catalytic activity. Cells were irradiated (4 Gy; 0.75 Gy/min) or sham-irradiated and incubated at 37 °C for 1 h before harvesting cells for lysis and blotting (full details in supporting information). Where required, inhibitors were added to cells at the stated concentration from DMSO stock solutions (reaching no greater than 10% DMSO final concentration) with incubation for 1 h prior to irradiation/sham-irradiation. The following antibodies and dilutions were used in this work: phospho-ATM S1981 (ab81292, 1:5000, Abcam); phospho-KAP1 S824 (ab133440, 1:10,000, Abcam); phospho-CHK2 T68 (#2661, 1:1000, Cell Signalling Technologies); Total ATM (ab32420, clone [Y170], 1:500, Abcam); Total KAP1 (ab10483, 1:1000, Abcam); Total CHK2 (05-649, 1:1000, Merck Millipore); HRP-conjugated Tubulin (ab197740, clone [YL1/2], 1:4000, Abcam); HRP-conjugated β-Actin (clone 13E5, 1:1000, Cell Signalling Technologies), HRP-conjugated anti-rabbit secondary (HAF008, 1:1000, R&D Systems); and HRP-conjugated anti-mouse secondary (HAF007, 1:1000, R&D Systems). […]

[7] = molecular target: T1, ATM; experiment: Blocking of [18F]1 cell-associated activity by non-radioactive ATM inhibitors; assay type: cell-based; conditions: for effect on [18F]1 cell-associated activity at high molar excess: 1000 nM inhibitor, compared to DMSO control; for effect on [18F]1 cell-associated activity at lower inhibitor concentrations: 0.1–10 nM inhibitor
Experimental: as §1

[8] = PET/CT imaging and ex vivo biodistribution in wild type and ATM-null mice; design: species or system C57BL/6 mice; conditions: 1 h after intravenous administration
Experimental: (§2) All animal procedures were performed in accordance with the UK Animals (Scientific Procedures) Act 1986 and with local ethical committee approval. Mice were bred from parent C57BL/6 J mice heterozygous for a targeted mutation in the ATM^tm1Awbl allele to produce ATM-null (ATM^−/−) mice (Jackson laboratory). Wild-type (ATM^+/+) mice from this breeding program were used as controls. In a separate study, tumour xenografts were created in BALB/c nu/nu mice (8 weeks old) via subcutaneous injection of H1299 wild type, shATM knockdown, or shGFP knockdown cells in a 1:1 PBS/Matrigel® formulation on both sides of the hind flank. Total tumour volumes were allowed to reach an average of 600 mm^3 (range 330–930 mm^3) before imaging and/or biodistribution studies (approx. 6–10 weeks after inoculation).
Animals were anaesthetised by 4% isoflurane gas (0.5 L/min O2) and maintained at approx. 2% and 37 °C throughout the imaging session. C57BL/6 ATM^+/+ and ATM^−/− mice were administered [^18F]1 (83 ng; 0.5–4.6 MBq, molar activity range of 3.2–24.2 GBq/μmol with a standard deviation of 6.5 GBq/μmol) via intravenous bolus injection in the lateral tail vein. […] PET images were each registered to CT, attenuation corrected, calibrated by imaging a phantom containing a fluorine-18 standard solution, and analysed using PMod software package (version 3.807, PMOD Technologies).

[9] = tested on: H1299 shATM and shGFP cells; experiment: Cell retention of [18F]1; assay type: cell-based, human; conditions: after 1 h incubation with tracer, over 2 h
Experimental: as §1
Retention assays followed the same procedure with a 1-h incubation of cell with [^18F]1, but after culture medium was aspirated and cells washed with PBS (2 × 500 μL), it was replaced (500 μL DMEM) and cells incubated at 37 °C and 5% CO2 for the desired time. The amount of ^18F-activity retained in cells was then determined as above.

[10] = tested on: H1299 shATM and shGFP cells; experiment: Cell uptake of [18F]1; assay type: cell-based, human; conditions: irradiated 4 Gy or sham-irradiated, 37 °C
Experimental: as §1
To assess cellular uptake of [^18F]1, aliquots of H1299 shATM or shGFP cells were plated with 1 × 10^5 cells per well in 24-well plates in 500 μL complete growth medium and incubated overnight to allow cells to adhere. Cell culture medium was removed, cells washed with PBS and media replaced with DMEM (no additives). […] The amount of ^18F-activity associated with each fraction was determined using a Wizard2 Automatic Gamma Counter (PerkinElmer).

[11] = Ex vivo biodistribution, uptake in H1299 tumour xenografts; design: species or system BALB/c nu/nu mice
Experimental: as §2
Animals were anaesthetised by 4% isoflurane gas (0.5 L/min O2) and maintained at approx. 2% and 37 °C throughout the imaging session. C57BL/6 ATM^+/+ and ATM^−/− mice were administered [^18F]1 (83 ng; 0.5–4.6 MBq, molar activity range of 3.2–24.2 GBq/μmol with a standard deviation of 6.5 GBq/μmol) via intravenous bolus injection in the lateral tail vein. Xenograft-bearing BALB/c nu/nu mice were administered [^18F]1 (0.5 μg; 0.7–9.6 MBq, molar activity range of 0.62–9.8 GBq/μmol with a standard deviation of 3.0 GBq/μmol) via intravenous bolus injection to the lateral tail vein. PET/CT scanning was completed using a VECTor4CT scanner (MILabs, Utrecht, the Netherlands) for 1 h and was immediately followed by culling, dissection, and gamma counting of selected organs. Tumour tissue was immediately flash frozen in liquid nitrogen and mounted in OCT before producing 10 μm thick sections for autoradiography and H&E staining. Alternatively, frozen tumour tissue was macerated and lysed in RIPA buffer for western blot analysis (full details available in the supporting information). Reconstruction of both CT and PET images was performed with the MILabs reconstruction analysis using a γ-ray energy window of 467–571 keV (background weight 2.5%), 0.8 mm^3 voxel size, 8 subsets, and 5 iterations using the manufacturer’s SROSEM reconstruction type. PET images were each registered to CT, attenuation corrected, calibrated by imaging a phantom containing a fluorine-18 standard solution, and analysed using PMod software package (version 3.807, PMOD Technologies).

[12] = design: method as in PMID 29938225, PMID 33123736; conditions: phase I clinical trial; cited from earlier work
[13] = BALB/c nu/nu mice, intravenous, 1 h

T1 sequence (Q13315 whole entry): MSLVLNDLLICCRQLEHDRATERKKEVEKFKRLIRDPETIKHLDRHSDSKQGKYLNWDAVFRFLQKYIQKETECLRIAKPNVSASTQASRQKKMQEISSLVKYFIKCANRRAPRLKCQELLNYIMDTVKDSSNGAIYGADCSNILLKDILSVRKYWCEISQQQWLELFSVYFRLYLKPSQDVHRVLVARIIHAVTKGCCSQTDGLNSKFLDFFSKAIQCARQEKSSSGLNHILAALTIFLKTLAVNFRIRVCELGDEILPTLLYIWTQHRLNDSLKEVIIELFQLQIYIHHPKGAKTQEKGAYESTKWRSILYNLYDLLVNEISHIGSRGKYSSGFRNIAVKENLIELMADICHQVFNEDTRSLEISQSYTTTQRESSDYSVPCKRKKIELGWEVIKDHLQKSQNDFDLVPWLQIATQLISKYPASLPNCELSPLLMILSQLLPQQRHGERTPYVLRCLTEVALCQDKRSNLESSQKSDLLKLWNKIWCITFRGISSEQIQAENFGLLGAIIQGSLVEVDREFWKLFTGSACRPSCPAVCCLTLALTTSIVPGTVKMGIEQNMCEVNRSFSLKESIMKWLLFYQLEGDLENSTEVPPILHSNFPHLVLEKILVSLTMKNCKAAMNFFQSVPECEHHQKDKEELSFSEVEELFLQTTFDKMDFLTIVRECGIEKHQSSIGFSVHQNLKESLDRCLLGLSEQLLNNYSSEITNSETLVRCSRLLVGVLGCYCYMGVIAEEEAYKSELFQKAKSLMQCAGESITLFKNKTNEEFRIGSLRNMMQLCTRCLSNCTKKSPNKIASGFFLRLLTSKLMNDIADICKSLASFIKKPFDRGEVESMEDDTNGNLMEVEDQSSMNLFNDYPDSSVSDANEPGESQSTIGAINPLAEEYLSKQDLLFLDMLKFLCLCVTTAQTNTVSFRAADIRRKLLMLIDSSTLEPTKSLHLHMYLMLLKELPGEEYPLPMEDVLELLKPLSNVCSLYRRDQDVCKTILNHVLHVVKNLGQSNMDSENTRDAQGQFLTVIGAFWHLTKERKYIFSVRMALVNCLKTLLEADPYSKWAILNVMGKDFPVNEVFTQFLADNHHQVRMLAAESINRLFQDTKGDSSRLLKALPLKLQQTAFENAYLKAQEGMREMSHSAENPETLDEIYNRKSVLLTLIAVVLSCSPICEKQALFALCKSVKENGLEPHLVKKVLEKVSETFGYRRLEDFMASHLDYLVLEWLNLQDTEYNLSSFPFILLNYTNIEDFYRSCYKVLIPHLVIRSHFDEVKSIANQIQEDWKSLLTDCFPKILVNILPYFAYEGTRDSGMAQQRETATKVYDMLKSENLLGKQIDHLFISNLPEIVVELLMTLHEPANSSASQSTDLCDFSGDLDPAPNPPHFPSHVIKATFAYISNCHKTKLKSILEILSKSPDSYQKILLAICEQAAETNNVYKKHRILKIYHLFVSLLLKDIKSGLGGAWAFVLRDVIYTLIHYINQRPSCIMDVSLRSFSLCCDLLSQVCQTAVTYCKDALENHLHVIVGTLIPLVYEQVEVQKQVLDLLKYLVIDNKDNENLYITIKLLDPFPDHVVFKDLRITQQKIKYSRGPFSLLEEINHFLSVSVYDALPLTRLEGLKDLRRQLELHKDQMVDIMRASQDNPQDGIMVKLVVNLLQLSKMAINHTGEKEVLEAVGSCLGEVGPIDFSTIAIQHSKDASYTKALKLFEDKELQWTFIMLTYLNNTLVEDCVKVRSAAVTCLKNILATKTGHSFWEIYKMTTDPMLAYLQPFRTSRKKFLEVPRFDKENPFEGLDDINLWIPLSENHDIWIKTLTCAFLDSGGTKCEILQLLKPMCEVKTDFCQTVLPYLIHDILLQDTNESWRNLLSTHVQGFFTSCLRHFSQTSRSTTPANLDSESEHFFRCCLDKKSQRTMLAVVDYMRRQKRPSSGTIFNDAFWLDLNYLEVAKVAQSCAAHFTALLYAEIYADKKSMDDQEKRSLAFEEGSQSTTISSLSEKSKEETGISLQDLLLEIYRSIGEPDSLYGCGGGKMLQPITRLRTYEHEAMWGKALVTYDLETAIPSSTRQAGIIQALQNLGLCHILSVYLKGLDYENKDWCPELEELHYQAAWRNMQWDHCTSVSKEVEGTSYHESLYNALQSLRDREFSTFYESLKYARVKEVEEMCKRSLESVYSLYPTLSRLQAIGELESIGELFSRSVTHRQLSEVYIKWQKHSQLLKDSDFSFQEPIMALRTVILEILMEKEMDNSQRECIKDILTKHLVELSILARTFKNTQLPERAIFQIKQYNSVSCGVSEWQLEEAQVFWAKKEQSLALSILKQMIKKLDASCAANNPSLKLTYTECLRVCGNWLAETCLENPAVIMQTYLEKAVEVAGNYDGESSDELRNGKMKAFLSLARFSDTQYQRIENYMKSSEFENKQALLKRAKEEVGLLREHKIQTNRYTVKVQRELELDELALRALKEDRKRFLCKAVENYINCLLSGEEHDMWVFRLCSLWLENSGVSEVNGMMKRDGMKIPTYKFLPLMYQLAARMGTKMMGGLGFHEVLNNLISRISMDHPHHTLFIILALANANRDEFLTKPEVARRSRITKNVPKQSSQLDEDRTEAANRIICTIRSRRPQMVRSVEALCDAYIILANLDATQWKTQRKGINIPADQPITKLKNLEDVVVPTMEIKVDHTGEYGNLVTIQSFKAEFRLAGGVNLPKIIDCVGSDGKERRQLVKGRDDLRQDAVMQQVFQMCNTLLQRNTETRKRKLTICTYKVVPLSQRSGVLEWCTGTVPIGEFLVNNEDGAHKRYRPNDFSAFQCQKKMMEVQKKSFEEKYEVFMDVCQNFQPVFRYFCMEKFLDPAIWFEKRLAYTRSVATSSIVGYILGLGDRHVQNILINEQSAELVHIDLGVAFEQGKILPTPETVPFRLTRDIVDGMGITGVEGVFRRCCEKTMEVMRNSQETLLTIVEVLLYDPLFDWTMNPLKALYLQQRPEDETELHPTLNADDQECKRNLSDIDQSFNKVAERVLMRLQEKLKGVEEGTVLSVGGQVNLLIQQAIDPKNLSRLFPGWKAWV

CC(C)n1c(=O)n(C)c2cnc3ccc(-c4ccc(OCCCN5CCCCC5)nc4[N+](=O)[O-])cc3c21 [compound 2]
pATM expression and downstream targets pKAP1 and pCHK2, western blot [1]: decrease in pATM expression

CC(C)n1c(=O)n(C)c2cnc3ccc(-c4ccc(OCCCN5CCCCC5)nc4F)cc3c21 [compound 1]
IC50 [2]: > 5.19 µM
pATM expression and downstream targets pKAP1 and pCHK2, western blot [1]: decrease in pATM expression
IC50 [3]: > 30 µM
IC50 ([4]; read-out: Cellular IC50 by catalytic inhibition: ATM): < 0.00043 µM
IC50 value of ATM inhibition ([4]; reported value): sub-nM
IC50 [5]: 5.75 µM
murine ATM inhibition and reduction of downstream target pKAP1, western blot [6]: murine ATM inhibition
effect on [18F]1 cell-associated activity at high molar excess [7]: increase in cell-associated activity
effect on [18F]1 cell-associated activity at lower inhibitor concentrations ([7]; H1299 shATM and shGFP cells): initial blocking effect

C[C@@H]1CN(CC(=O)Nc2ccc3c(c2)Cc2cccc(-c4cc(=O)cc(N5CCOCC5)o4)c2S3)C[C@H](C)O1 [KU60019, reference compound]
pATM expression and downstream targets pKAP1 and pCHK2, western blot [1]: decrease in pATM expression
blocking of [18F]1 cell-associated activity ([7]; increasing concentrations of blocking agent, H1299 shATM and shGFP cells, 1 h tracer incubation): significant blocking

CC(C)n1c(=O)n(C)c2cnc3cc(F)c(-c4ccc(OCCCN5CCCCC5)nc4)cc3c21 [AZD1390]
pATM expression and downstream targets pKAP1 and pCHK2, western blot [1]: decrease in pATM expression
effect on [18F]1 cell-associated activity at high molar excess [7]: increase in cell-associated activity
effect on [18F]1 cell-associated activity at lower inhibitor concentrations ([7]; H1299 shATM and shGFP cells): initial blocking effect

CC(C)n1c(=O)n(C)c2cnc3ccc(-c4ccc(OCCCN5CCCCC5)nc4[18F])cc3c21 [[^18F]1]
difference in uptake between wild type and ATM-null mice ([8]; C57BL/6 mice): Significant differences in uptake between the two mice were only observed in the kidneys and liver
clearance route ([8]; wild type and ATM-null C57BL/6 mice): hepatobiliary clearance
decrease in cell-associated activity (retention) [9]: approximately 50%
cell-associated activity (uptake) [10]: increase in cell-associated activity over 1 h followed by a plateau
uptake in H1299 tumour xenografts (shATM) [11, 13]: 0.35 ± 0.10 %ID/g
uptake in H1299 tumour xenografts (shGFP) [11, 13]: 0.35 ± 0.14 %ID/g
uptake in H1299 tumour xenografts (wild type) [11, 13]: 0.38 ± 0.12 %ID/g
tumour uptake, range ([11]; after 1 h, all tumour types): 0.13–0.90 %ID/g
clearance route ([11]; xenograft-bearing BALB/c nu/nu mice): hepatobiliary clearance

CC(C)n1c(=O)n([11CH3])c2cnc3cc(F)c(-c4ccc(OCCCN5CCCCC5)nc4)cc3c21 [[^11C]AZD1390]
blood–brain barrier penetration by PET [12]: ability to cross the blood–brain barrier
